According to patent US20220339416A1, “SILK FIBROIN-BASED MICRONEEDLES AND USES THEREOF” (VAXESS TECHNOLOGIES, INC., priority 2019, published 2022):

Columns and labels:
[1] = system: B16-F10 mouse melanoma tumor; assay: Daily vs single bolus intratumoral administration in B16-F10 mouse melanoma tumor model; type: in vivo; details: anti-PD1 mAb 100 ug i.p. Day 4 and 9
Description: Mouse melanoma cells (B16-F10) are to be injected into the flank (right side) of mice (C57Bl/6) and a tumor is to be allowed to form. The agent will be administered intratumorally or peritumorally (i.e., intradermally or subcutaneously) either as: • 1. a single bolus, • 2. a series of fractional injections where the total dose given over the time frame is equivalent to the single bolus. These injections may be given daily or every other day. • 3. a silk microneedle patch formulated with the one or more therapeutic agents.
Tumor growth will be measured two to three times weekly. Animals will be euthanized when humane endpoints have been reached. These endpoints include weight loss >15%, body condition score <1, tumor volume >1 cm^3, tumor length (defined as the longest dimension) >1.5 cm, or tumor ulceration/necrosis. These humane endpoints apply to all in vivo experiments using the melanoma model.
According to the methods outlined above, daily intratumoral administration was compared to single intratumoral bolus doses, with IL-2 or gemcitabine, using a B16-F10 mouse melanoma tumor model. For this study, two cycles of treatment were performed, including a bolus administration on Day 7 and on Day 21, and daily administration on Days 7-11 and Days 21-25. […] On Day 0, mice were inoculated by subcutaneous administration of B16-F10 cells. […]

[2] = system: CT26 colon carcinoma; assay: Daily vs single bolus intratumoral administration in murine CT26 colon carcinoma model; type: in vivo, mouse; details: daily intratumoral 95 μg days 7-11 compared to single bolus 475 μg day 7; anti-PD1 mAb 100 μg i.p. day 4 and 9
Description: Daily intratumoral administration compared to single intratumoral bolus doses was further investigated using gemcitabine in a murine CT26 colon carcinoma model (see FIG. 7A-7B). On day 0, mice were inoculated by subcutaneous administration of CT26 cells. On day 4 and day 9, mice were administered a dose of an anti-PD1 mAb (100 μg per dose) by intraperitoneal injection. Data was pooled from two experiments, with 10 mice per group.
CT26 mice in the ‘single bolus dose’ group received a single bolus dose of gemcitabine (475 μg) (intratumoral) at day 7, and four doses of saline (intratumoral) for the next four days (FIG. 7A). CT26 mice in the ‘daily dose’ group received daily doses of gemcitabine (95 μg) (intratumoral) over days 7-11 (5 total doses) (FIG. 7B). Each daily doses was a fractional dose equivalent to approximately ⅕ of the single bolus dose.

Nc1ccn([C@@H]2O[C@H](CO)[C@@H](O)C2(F)F)c(=O)n1 [gemcitabine]
survival (Kaplan-Meier curve) ([1]; daily intratumoral doses (Days 7-11 and 21-25) compared to single bolus doses (Day 7 and 21)): greater survival
tumor burden, as determined by tumor volume over time ([1]; daily intratumoral doses (Days 7-11 and 21-25, each 1/5 of bolus) compared to single bolus doses (Day 7 and 21)): lower tumor burden
overall survivability (Kaplan-Meier survival curve) [2]: greater than the bolus dose group
tumor burden (tumor volume over time) [2]: lower tumor burden
